Source: patent publication US10472341B2, “Bicyclic tetrahydrothiazepine derivatives useful for the treatment of neoplastic and/or infectious diseases” (APEIRON BIOLOGICS AG, priority 2015, dated 2019)
Where a name gives a salt, the structure may show the parent alone. Read-outs that look alike come from different tables or passages of the source.

System: aCD3/aCD28-stimulated human PBMCs
Test: Cytokine production in aCD3/aCD28 stimulated human PBMCs
Assay type: cell-based
Conditions: PBMC, 18 h
Method: In order to determine the immune modulatory effect of compounds of compounds of the present invention in human PBMCs, compounds were assessed in the following assay set-up:
Buffy coats were obtained from a local hospital, diluted 3 fold with PBS and layered onto an isotonic Ficoll separating solution d=1.077 g/mL in 50 mL centrifuge tubes. The tubes were centrifuged at 914 g for 25 min at room temperature with the brakes off. The PBMC layer was removed and washed twice with ice-cold PBS. Erythrocytes were lysed by addition of ddH2O and cells were resuspended in X-Vivo15 (Lonza).
1e6 cells/mL were stimulated with soluble anti CD3/CD28 antibodies (1 μg/mL both, clones OKT3 and 28.2) in the presence of described compounds. Cells were incubated for 18 h at 37° C., 5% CO2. Assay plates were centrifuged at 400 g for 5 min and supernatants harvested. Cytokine concentration in tissue culture supernatants were determined with MSD or HTRF kits (MSD and Cisbio), according to manufacturer's instructions.

[1] = enhancement of IFN-γ production, read-out: Activity Class IFN-γ
[2] = enhancement of IL-2 production, read-out: Activity Class IL-2

Row | Compound | EC50 [1] | EC50 [2]
1 | Cc1ccc(CNC(=O)c2ccc3c(c2)N(Cc2ccc(Cl)cc2)C(=O)[C@@H](N)CS3(=O)=O)cn1 [Example 168, (3R)-3-amino-5-[(4-chlorophenyl)methyl]-N-[(6-methylpyridin-3-yl)methyl]-1,1,4-trioxo-2,3,4,5-tetrahydro-1λ^6,5-benzothiazepine-7-carboxamide] | 1.58 to 5.01 µM | > 5.01 µM
2 | CCN[C@H]1CS(=O)(=O)c2cc(F)c(C(=O)NCCCC(F)(F)F)cc2N(Cc2ccc(Cl)cc2)C1=O [Example 182, (3R)-5-[(4-chlorophenyl)methyl]-3-(ethylamino)-8-fluoro-1,1,4-trioxo-N-(4,4,4-trifluorobutyl)-2,3,4,5-tetrahydro-1λ^6,5-benzothiazepine-7-carboxamide] | 1.58 to 5.01 µM | > 5.01 µM
3 | C#CCCCNC(=O)c1cc2c(cc1F)S(=O)(=O)C[C@H](N)C(=O)N2Cc1ccc(Cl)cc1 [Example 174, (3R)-3-amino-5-[(4-chlorophenyl)methyl]-8-fluoro-1,1,4-trioxo-N-(pent-4-yn-1-yl)-2,3,4,5-tetrahydro-1λ^6,5-benzothiazepine-7-carboxamide] | 1.58 to 5.01 µM | 1.58 to 5.01 µM
4 | COCCNC(=O)c1cc2c(cc1F)S(=O)(=O)C[C@H](N)C(=O)N2Cc1ccc(Cl)cc1 [Example 120, (3R)-3-amino-5-[(4-chlorophenyl)methyl]-8-fluoro-N-(2-methoxyethyl)-1,1,4-trioxo-2,3,4,5-tetrahydro-1λ^6,5-benzothiazepine-7-carboxamide hydrochloride] | > 5.01 µM | > 5.01 µM
5 | N[C@H]1CS(=O)(=O)c2ccc(C(=O)NCC3CCOCC3)cc2N(Cc2ccc(OC(F)F)cc2)C1=O [Example 164, (3R)-3-amino-5-{[4-(difluoromethoxy)phenyl]methyl}-N-[(oxan-4-yl)methyl]-1,1,4-trioxo-2,3,4,5-tetrahydro-1λ^6,5-benzothiazepine-7-carboxamide] | > 5.01 µM | > 5.01 µM
6 | COc1cccc(CN2C(=O)[C@@H](N)CS(=O)(=O)c3ccc(C(=O)NC4CC(F)(F)C4)cc32)c1 [Example 149, (3R)-3-amino-N-(3,3-difluorocyclobutyl)-5-[(3-methoxyphenyl)methyl]-1,1,4-trioxo-2,3,4,5-tetrahydro-1λ^6,5-benzothiazepine-7-carboxamide] | > 5.01 µM | > 5.01 µM
7 | COc1ccc(CN2C(=O)[C@@H](N)CS(=O)(=O)c3cc(F)c(C(=O)NC4CC4(F)F)cc32)cc1C(F)(F)F (stereo partly drawn) [Example 117, (3R)-3-amino-N-(2,2-difluorocyclopropyl)-8-fluoro-5-{[4-methoxy-3-(trifluoromethyl)phenyl]methyl}-1,1,4-trioxo-2,3,4,5-tetrahydro-1λ^6,5-benzothiazepine-7-carboxamide hydrochloride] | < 1.58 µM | > 5.01 µM
8 | COc1ccc(CNC(=O)c2ccc3c(c2)N(Cc2ccc(Cl)cc2)C(=O)[C@@H](N)CS3(=O)=O)cn1 [Example 177, (3R)-3-amino-5-[(4-chlorophenyl)methyl]-N-[(6-methoxypyridin-3-yl)methyl]-1,1,4-trioxo-2,3,4,5-tetrahydro-1λ^6,5-benzothiazepine-7-carboxamide] | < 1.58 µM | 1.58 to 5.01 µM
9 | Cc1nc(-c2ccc(CN3C(=O)[C@@H](N)CS(=O)(=O)c4ccc(C(=O)NC5CC5(F)F)cc43)cc2)no1 (stereo partly drawn) [Example 121, (3R)-3-amino-N-(2,2-difluorocyclopropyl)-5-{[4-(5-methyl-1,2,4-oxadiazol-3-yl)phenyl]methyl}-1,1,4-trioxo-2,3,4,5-tetrahydro-1λ^6,5-benzothiazepine-7-carboxamide hydrochloride] | > 5.01 µM | > 5.01 µM
10 | N[C@H]1CS(=O)(=O)c2ccc(C(=O)N[C@@H]3CCOC3)cc2N(Cc2ccc(Cl)cc2)C1=O [Example 156, (3R)-3-amino-5-[(4-chlorophenyl)methyl]-1,1,4-trioxo-N-[(3R)-oxolan-3-yl]-2,3,4,5-tetrahydro-1λ^6,5-benzothiazepine-7-carboxamide] | > 5.01 µM | > 5.01 µM
11 | CC(C)NC(=O)c1ccc2c(c1)N(Cc1ccc(Cl)cc1)C(=O)[C@@H](N)CS2 [Example 61, (3R)-3-amino-5-[(4-chlorophenyl)methyl]-4-oxo-N-(propan-2-yl)-2,3,4,5-tetrahydro-1,5-benzothiazepine-7-carboxamide hydrochloride] | 1.58 to 5.01 µM | > 5.01 µM
12 | N[C@H]1CS(=O)(=O)c2ccc(C(=O)N[C@@H]3CC3(F)F)cc2N(Cc2ccccc2)C1=O [Example 167, (3R)-3-amino-5-benzyl-N-[(1R)-2,2-difluorocyclopropyl]-1,1,4-trioxo-2,3,4,5-tetrahydro-1λ^6,5-benzothiazepine-7-carboxamide] | > 5.01 µM | > 5.01 µM
13 | N[C@H]1CS(=O)(=O)c2ccc(C(=O)NC3CC(F)(F)C3)cc2N(Cc2ccccc2F)C1=O [Example 148, (3R)-3-amino-N-(3,3-difluorocyclobutyl)-5-[(2-fluorophenyl)methyl]-1,1,4-trioxo-2,3,4,5-tetrahydro-1λ^6,5-benzothiazepine-7-carboxamide] | 1.58 to 5.01 µM | > 5.01 µM
14 | COCCOCCNC(=O)c1cc2c(cc1F)S(=O)(=O)C[C@H](N)C(=O)N2Cc1ccc(Cl)cc1 [Example 172, (3R)-3-amino-5-[(4-chlorophenyl)methyl]-8-fluoro-N-[2-(2-methoxyethoxy)ethyl]-1,1,4-trioxo-2,3,4,5-tetrahydro-1λ^6,5-benzothiazepine-7-carboxamide] | 1.58 to 5.01 µM | > 5.01 µM
15 | N#Cc1ccc(CN2C(=O)[C@@H](N)CS(=O)(=O)c3cc(F)c(C(=O)NCc4ccc(F)cc4)cc32)cc1 [Example 170, (3R)-3-amino-5-[(4-cyanophenyl)methyl]-8-fluoro-N-[(4-fluorophenyl)methyl]-1,1,4-trioxo-2,3,4,5-tetrahydro-1λ^6,5-benzothiazepine-7-carboxamide] | < 1.58 µM | < 1.58 µM
16 | N[C@H]1CS(=O)(=O)c2cc(F)c(C(=O)NCc3ccc(F)cc3)cc2N(Cc2nnc(C3CC3)s2)C1=O [Example 138, (3R)-3-amino-5-[(5-cyclopropyl-1,3,4-thiadiazol-2-yl)methyl]-8-fluoro-N-[(4-fluorophenyl)methyl]-1,1,4-trioxo-2,3,4,5-tetrahydro-1λ^6,5-benzothiazepine-7-carboxamide hydrochloride] | 1.58 to 5.01 µM | > 5.01 µM
17 | COCCNC(=O)c1ccc2c(c1)N(Cc1ccc(Cl)cc1)C(=O)[C@@H](N)CS2 [Example 20, (3R)-3-amino-5-[(4-chlorophenyl)methyl]-N-(2-methoxyethyl)-4-oxo-2,3,4,5-tetrahydro-1,5-benzothiazepine-7-carboxamide hydrochloride] | 1.58 to 5.01 µM | > 5.01 µM
18 | N[C@H]1CS(=O)(=O)c2ccc(C(=O)NCC3CCOC3)cc2N(Cc2ccc(Cl)cc2)C1=O (stereo partly drawn) [Example 157, (3R)-3-amino-5-[(4-chlorophenyl)methyl]-1,1,4-trioxo-N-[(oxolan-3-yl)methyl]-2,3,4,5-tetrahydro-1λ^6,5-benzothiazepine-7-carboxamide] | > 5.01 µM | > 5.01 µM
19 | Cc1nc(-c2ccc(CN3C(=O)[C@@H](N)CS(=O)(=O)c4ccc(C(=O)NCCCC(F)(F)F)cc43)cc2)no1 [Example 119, (3R)-3-amino-5-{[4-(5-methyl-1,2,4-oxadiazol-3-yl)phenyl]methyl}-1,1,4-trioxo-N-(4,4,4-trifluorobutyl)-2,3,4,5-tetrahydro-1λ^6,5-benzothiazepine-7-carboxamide hydrochloride] | 1.58 to 5.01 µM | > 5.01 µM
20 | C#CCCNC(=O)c1cc2c(cc1F)S(=O)(=O)C[C@H](N)C(=O)N2Cc1ccc(Cl)cc1 [Example 173, (3R)-3-amino-N-(but-3-yn-1-yl)-5-[(4-chlorophenyl)methyl]-8-fluoro-1,1,4-trioxo-2,3,4,5-tetrahydro-1λ^6,5-benzothiazepine-7-carboxamide] | 1.58 to 5.01 µM | > 5.01 µM
21 | CN(C)c1cc2c(cc1C(=O)NCc1ccccc1)N(Cc1ccc(Cl)cc1)C(=O)[C@@H](N)CS2(=O)=O [Example 116, (3R)-3-amino-N-benzyl-5-[(4-chlorophenyl)methyl]-8-(dimethylamino)-1,1,4-trioxo-2,3,4,5-tetrahydro-1λ^6,5-benzothiazepine-7-carboxamide hydrochloride] | 1.58 to 5.01 µM | > 5.01 µM
22 | COc1ccc(CN2C(=O)[C@@H](N)CS(=O)(=O)c3ccc(C(=O)N[C@@H]4CC4(F)F)cc32)cc1 [Example 161, (3R)-3-amino-N-[(1R)-2,2-difluorocyclopropyl]-5-[(4-methoxyphenyl)methyl]-1,1,4-trioxo-2,3,4,5-tetrahydro-1λ^6,5-benzothiazepine-7-carboxamide] | > 5.01 µM | > 5.01 µM
23 | N[C@H]1CS(=O)(=O)c2ccc(C(=O)NCCCC(F)(F)F)cc2N(Cc2ccccc2)C1=O [Example 162, (3R)-3-amino-5-benzyl-1,1,4-trioxo-N-(4,4,4-trifluorobutyl)-2,3,4,5-tetrahydro-1λ^6,5-benzothiazepine-7-carboxamide] | > 5.01 µM | > 5.01 µM
24 | C[C@@H](NC(=O)c1ccc2c(c1)N(Cc1ccc(Cl)cc1)C(=O)[C@@H](N)CS2(=O)=O)C1CCOCC1 [Example 166, (3R)-3-amino-5-[(4-chlorophenyl)methyl]-N-[(1R)-1-(oxan-4-yl)ethyl]-1,1,4-trioxo-2,3,4,5-tetrahydro-1λ^6,5-benzothiazepine-7-carboxamide] | > 5.01 µM | > 5.01 µM
